The test system of assay [1] is secretion of ACTH and β-endorphin. In words: stimulation of ACTH and β-endorphin, background statements (in vitro and in vivo). The note with it: synthetic peptide.
The nature of assay [2]: lowering of blood pressure, in vivo testing. The note with it: synthetic peptide; extended time period.
For assay [3], the system named is cultured rat pituitary cells. In words: secretion of ACTH and β-endorphin by cultured rat pituitary cells. The format is cell-based. The note with it: cultured rat pituitary cells; read-out: concentration giving half-maximal responses, secretion of ACTH and β-endorphin.
For assay [4] the following is noted: in mammals; cited from earlier work.
In a further assay the test system is gastric acid production. The note with it: cited from earlier work.
Assay [5] has as its system secretion of ACTH and β-endorphin. The note with it: in mammals; cited from earlier work.

Results on two compounds are retold here after patent US4594329A, “CRF analogs” (The Salk Institute for Biological Studies, priority 1984, dated 1986).

As for `CC[C@H](C)[C@H](NC(=O)[C@@H](NC(=O)[C@H](CCC(=O)O)NC(=O)[C@H](CCSC)NC(=O)[C@H](CC(C)C)NC(=O)[C@H](CCCCN)NC(=O)[C@H](CCCNC(=N)N)NC(=O)[C@H](CC(N)=O)NC(=O)[C@H](CO)NC(=O)[C@H](Cc1c[nH]cn1)NC(=O)[C@H](C)NC(=O)[C@H](CCC(N)=O)NC(=O)[C@H](CCC(N)=O)NC(=O)[C@H](C)NC(=O)[C@H](CC(C)C)NC(=O)[C@H](CCC(N)=O)NC(=O)[C@H](CCC(=O)O)NC(=O)[C@H](C)NC(=O)[C@H](CCCNC(=N)N)NC(=O)[C@H](C)NC(=O)[C@H](CCSC)NC(=O)[C@H](CCC(=O)O)NC(=O)[C@H](CC(C)C)NC(=O)[C@@H](NC(=O)[C@H](CCC(=O)O)NC(=O)[C@H](CCCNC(=N)N)NC(=O)[C@H](CC(C)C)NC(=O)[C@H](CC(C)C)NC(=O)[C@H](Cc1c[nH]cn1)NC(=O)[C@H](Cc1ccccc1)NC(=O)[C@@H](NC(=O)[C@H](CC(C)C)NC(=O)[C@H](CC(=O)O)NC(=O)[C@H](CC(C)C)NC(=O)[C@H](CO)NC(=O)[C@@H](NC(=O)[C@@H]1CCCN1C(=O)[C@@H]1CCCN1C(=O)[C@H](CCC(=O)O)NC(=O)[C@H](CCC(=O)O)NC(=O)[C@@H](N)CO)[C@@H](C)CC)[C@@H](C)O)C(C)C)[C@@H](C)CC)C(N)=O` [rCRF, reference compound], in assay [1], the “stimulation of ACTH and β-endorphin activities” value is “stimulate ACTH and β-endorphin activities in vitro and in vivo”. Also, the “lowering of blood pressure” value in assay [2] is given as “substantially lower blood pressure for an extended time period”.
For the compound `CC[C@H](C)[C@H](NC(=O)[C@H](CC(=O)O)NC(=O)[C@H](CC(C)C)NC(=O)[C@H](CC(C)C)NC(=O)[C@H](CCCCN)NC(=O)[C@H](CCCNC(=N)N)NC(=O)[C@H](CC(N)=O)NC(=O)[C@H](CO)NC(=O)[C@H](Cc1c[nH]cn1)NC(=O)[C@H](C)NC(=O)[C@H](CCC(N)=O)NC(=O)[C@H](CCC(N)=O)NC(=O)[C@H](C)NC(=O)[C@H](CC(C)C)NC(=O)[C@H](CCC(N)=O)NC(=O)[C@H](CC(=O)O)NC(=O)[C@H](C)NC(=O)[C@H](CCCCN)NC(=O)[C@@H](NC(=O)[C@H](CCSC)NC(=O)[C@H](CCC(=O)O)NC(=O)[C@H](CC(C)C)NC(=O)[C@@H](NC(=O)[C@H](CCC(=O)O)NC(=O)[C@H](CCCNC(=N)N)NC(=O)[C@H](CC(C)C)NC(=O)[C@H](CC(C)C)NC(=O)[C@H](Cc1c[nH]cn1)NC(=O)[C@H](Cc1ccccc1)NC(=O)[C@@H](NC(=O)[C@H](CC(C)C)NC(=O)[C@H](CC(=O)O)NC(=O)[C@H](CC(C)C)NC(=O)[C@H](CO)NC(=O)[C@@H](NC(=O)[C@@H]1CCCN1C(=O)[C@@H]1CCCN1C(=O)[C@H](CCC(=O)O)NC(=O)[C@H](CCC(N)=O)NC(=O)[C@@H](N)CO)[C@@H](C)CC)[C@@H](C)O)C(C)C)[C@@H](C)O)C(=O)N[C@@H](C)C(N)=O` [oCRF], in assay [1], the “stimulation of ACTH and β-endorphin activities” value was “stimulate ACTH and β-endorphin activities in vitro and in vivo”. In addition, the EC50 in assay [3] is around 0.25 nM. In addition, the “biological activity in lowering blood pressure (reported)” value in assay [4] is given as “biological activity in lowering blood pressure in mammals”. For the same compound, the “gastric acid production” value in the assay on gastric acid production is given as “inhibits gastric acid production”. Further, in assay [5], the “biological activity in stimulating the secretion of ACTH and β-endorphin (reported)” value was “stimulating the secretion of ACTH and β-endorphin”. Moreover, the “lowering of blood pressure” value in assay [2] is given as “substantially lower blood pressure for an extended time period”.
